Assay results taken from patent publication US7273848B2, “Apolipoprotein A-I agonists and their use to treat dyslipidemic disorders” (priority 1997, dated 2007).
Non-standard residues stand in square brackets, D forms with d. Residues, ends and D or L forms follow the SMILES beside them. Aib = CC(C)(N)C(=O)O

Assays:
[1] = target: T1, LCAT (purified from human plasma) (Homo sapiens, UniProt P04180); experiment: LCAT activation assay; format: biochemical; details: LCAT activation as compared with native human ApoA-I (= 100%), equivalent masses
T1 construct: from tissue; host or cells: human plasma
T1 sequence (P04180 25-440): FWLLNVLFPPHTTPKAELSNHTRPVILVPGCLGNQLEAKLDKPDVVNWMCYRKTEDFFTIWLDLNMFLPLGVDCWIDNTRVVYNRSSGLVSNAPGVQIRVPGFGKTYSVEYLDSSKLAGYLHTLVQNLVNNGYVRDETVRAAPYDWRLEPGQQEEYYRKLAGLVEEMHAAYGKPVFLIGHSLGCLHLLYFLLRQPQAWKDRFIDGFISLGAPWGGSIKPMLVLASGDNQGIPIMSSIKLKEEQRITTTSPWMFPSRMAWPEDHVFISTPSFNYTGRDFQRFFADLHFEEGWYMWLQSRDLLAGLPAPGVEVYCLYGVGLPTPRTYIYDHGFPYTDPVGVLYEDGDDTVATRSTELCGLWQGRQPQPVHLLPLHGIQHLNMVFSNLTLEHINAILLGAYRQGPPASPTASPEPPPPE
Description: The peptides synthesized as described in Section 6, supra, were analyzed in vitro for their ability to activate LCAT. In the LCAT assay, substrate vesicles (small unilamellar vesicles or “SUVs”) composed of egg phophatidylcholine (EPC) or 1-Palmitoyl-2-oleyl-phosphatidyl-choline (POPC) and radiolabelled cholesterol are preincubated with equivalent masses either of peptide or ApoA-I (isolated from human plasma). The reaction is initiated by addition of LCAT (purified from human plasma). Native ApoA-I, which was used as positive control, represents 100% activation activity. “Specific activity” (i.e., units of activity (LCAT activation)/unit of mass) of the peptides can be calculated as the concentration of peptide that achieves maximum LCAT activation. For example, a series of concentrations of the peptide (e.g., a limiting dilution) can be assayed to determine the “specific activity” for the peptide—the concentration which achieves maximal LCAT activation (i.e., percentage conversion of cholesterol to cholesterol ester) at a specific timepoint in the assay (e.g., 1 hr.). When plotting percentage conversion of cholesterol at, e.g., 1 hr., against the concentration of peptide used, the “specific activity” can be identified as the concentration of peptide that achieves a plateau on the plotted curve.
The vesicles used in the LCAT assay are SUVs composed of egg phosphatidylcholine (EPC) or 1-palmitoyl-2-oleyl-phosphatidylcholine (POPC) and cholesterol with a molar ratio of 20:1. To prepare a vesicle stock solution sufficient for 40 assays, 7.7 mg EPC (or 7.6 mg POPC; 10 μmol), 78 μg (0.2 μmol) 4-^14C-cholesterol, 116 μg cholesterol (0.3 μmol) are dissolved in 5 ml xylene and lyophilized. Thereafter 4 ml of assay buffer is added to the dry powder and sonicated under nitrogen atmosphere at 4° C. Sonication conditions: Branson 250 sonicator, 10 mm tip, 6×5 minutes; Assay buffer: 10 mM Tris, 0.14 M NaCl, 1 mM EDTA, pH 7.4). The sonicated mixture is centrifuged 6 times for 5 minutes each time at 14,000 rpm (16,000×g) to remove titanium particles. The resulting clear solution is used for the enzyme assay.
For the LCAT purification, dextran sulfate/Mg^2+ treatment of human plasma is used to obtain lipoprotein deficient serum (LPDS), which is sequentially chromatographed on Phenylsepharose, Affigelblue, ConcanavalinA sepharose and anti-ApoA-I affinity chromatography, as summarized for a representative purification in TABLE IX, below: […]

[2] = Circular dichroism helicity determination; format: physicochemical; details: percent helicity
Description: Far UV circular dichroism spectra were recorded between 190 and 260 nm (in 0.5 nm or 0.2 nm increments) with a AVIV62DS spectrometer (AVIV Associates, Lakewood, N.J., USA) equipped with a thermoelectric cell holder and sample changer. The instrument was calibrated with (+)-10-[…]. Between one and three scans were collected for each sample, using 10 cm, 5 cm, 1 cm and 0.1 cm path length quartz Suprasil cells, respectively, for peptide concentrations of 10^−7 M to 10^−4 M. The bandwidth was fixed at 1.5 nm and the scan speed to 1s per wavelength step. The reported data are the mean of at least 2 or 3 independent measurements.
After background substraction, spectra were converted to molar ellipticity (θ) per residue in deg. […] dmol^−1. The peptide concentration was determined by amino acid analysis and also by absorption spectrometry on a Perkin Elmer Lambda 17 UV/Visible spectrophotometer when the peptide contained a chromophore (tryptophane, dansyl, naphtylalanine).
CD spectra were obtained with free, unbound peptide (5 μM in 5 mM phosphate buffer, pH 7.4); with peptide-SUV complexes (20:1 EPC:Chol., Ri=30 and Ri=50); with peptide-micelle complexes (1-myristoyl-2-hydroxy-sn-glycero-3-phosphatidyl choline, Ri=100); and with free, unbound peptide in the presence of 2,2,2-trifluoroethanol (TFE) (5 μM peptide, 90% vol TFE).
The SUVs were obtained by dispersing the lipids (10 mM, 20:1 EPC:Chol., Avanti Polar Lipids, AL) in phosphate buffer (5 mM, pH 7.4) with bubbling N2 for 5 min., followed by sonication (1.5 hr.) in a bath sonicator. The homogeneity of the preparation was checked by FPLC.
The micelles were obtained by dispersing the lipid (6 mM 1-myristoyl-2-hydroxy-sn-glycero-3-phosphatidyl choline, Avanti Polar Lipids, AL) in phosphate buffer (5 mM, pH 7.4) with bubbling N2 for 5 min., followed by vortexing.
To obtain the peptide-SUV complexes, SUVs were added to the peptide (5 μM in 5 mM phosphate buffer, pH 7.4) at a phospholipid-peptide molar ratio (Ri) of 30 or 50.
To obtain the peptide-micelle complexes, micelles were added to the peptide (5 μM in 5 mM phosphate buffer, pH 7.4) at a Ri of 100.
All spectra were recorded at 37° C.
The degree of helicity of the peptides in the various conditions was determined from the mean residue ellipticity at 222 nm (Chen et al., 1974, Biochemistry 13:3350-3359) or by comparing the CD spectra obtained to reference spectra available on databases (16 helical reference spectra from Provencher & Glockner, 1981, Biochemistry 20:33-37; denatured protein reference spectra from Venyaminov et al., 1993, Anal. Biochem. 214:17-24) using the CONTIN curve-fitting algorithm version 2DP, CD-1 pack (August 1982) (Provencher, 1982, Comput. Phys. Commun. 27:213-227, 229-242). Acceptable fit was determined using the statistical analysis methodology provided by the CONTIN algorithm. The error of all methods was ±5% helicity.

Compound	ACTIVITY (%) LCAT [1]	also measured
CC(C)C[C@H](NC(=O)[C@H](C)NC(=O)[C@H](CCC(=O)O)NC(=O)[C@H](CC(C)C)NC(=O)[C@H](CC(C)C)NC(=O)[C@H](CCC(=O)O)NC(=O)[C@H](CC(N)=O)NC(=O)[C@H](CC(C)C)NC(=O)[C@H](CC(C)C)NC(=O)[C@H](CCC(=O)O)NC(=O)[C@H](CCCNC(=N)N)NC(=O)[C@H](Cc1ccccc1)NC(=O)[C@H](CC(C)C)NC(=O)[C@H](CC(=O)O)NC(=O)[C@H](CC(C)C)NC(=O)[C@@H](NC(=O)[C@H]1CCCN1)C(C)C)C(=O)N[C@@H](CCCCN)C(=O)N[C@@H](CCC(N)=O)C(=O)N[C@@H](CCCCN)C(=O)N[C@@H](CC(C)C)C(=O)N[C@@H](CCCCN)C(=O)N[C@@H](CCCCN)C(=O)O [compound 5]	90%	
CC(C)C[C@H](NC(=O)CNC(=O)[C@H](CCC(=O)O)NC(=O)[C@H](CC(N)=O)NC(=O)[C@H](CC(C)C)NC(=O)[C@H](CC(C)C)NC(=O)[C@H](CCC(=O)O)NC(=O)[C@H](CCCNC(=N)N)NC(=O)[C@H](Cc1ccccc1)NC(=O)[C@H](CC(C)C)NC(=O)[C@H](CC(=O)O)NC(=O)[C@H](CC(C)C)NC(=O)[C@@H](NC(=O)[C@H]1CCCN1)C(C)C)C(=O)N[C@@H](CCC(=O)O)C(=O)N[C@@H](C)C(=O)N[C@@H](CC(C)C)C(=O)N[C@@H](CCCCN)C(=O)N[C@@H](CCC(N)=O)C(=O)N[C@@H](CCCCN)C(=O)N[C@@H](CC(C)C)C(=O)N[C@@H](CCCCN)C(=O)O [compound 19] (H-[dP]VLDLFRELLNEGLEALKQKLK-OH)	58%	
CC(C)C[C@H](NC(=O)[C@H](C)NC(=O)[C@H](CCC(=O)O)NC(=O)[C@H](CC(C)C)NC(=O)[C@H](CC(C)C)NC(=O)[C@H](CCC(=O)O)NC(=O)[C@H](CC(N)=O)NC(=O)[C@H](CC(C)C)NC(=O)[C@H](CC(C)C)NC(=O)[C@H](CCC(=O)O)NC(=O)[C@H](CCCNC(=N)N)NC(=O)[C@H](Cc1ccccc1)NC(=O)[C@H](CC(C)C)NC(=O)[C@H](CC(=O)O)NC(=O)[C@H](CC(C)C)NC(=O)[C@@H](NC(=O)[C@H]1CCCN1)C(C)C)C(=O)N[C@@H](CCCCN)C(=O)N[C@@H](CCC(N)=O)C(=O)N[C@@H](CCCCN)C(=O)N[C@@H](CC(C)C)C(=O)N[C@@H](CCCCN)C(=O)O [compound 21]	57%	
CC(C)C[C@H](NC(=O)[C@H](C)NC(=O)[C@H](CCC(=O)O)NC(=O)[C@H](CC(C)C)NC(=O)[C@H](CC(C)C)NC(=O)[C@H](CCC(=O)O)NC(=O)[C@H](CC(N)=O)NC(=O)[C@H](CC(C)C)NC(=O)[C@H](CC(C)C)NC(=O)[C@H](CCC(=O)O)NC(=O)[C@H](CCCNC(=N)N)NC(=O)[C@H](Cc1ccccc1)NC(=O)[C@H](CC(C)C)NC(=O)[C@H](CC(=O)O)NC(=O)[C@H](CC(C)C)NC(=O)[C@@H](NC(=O)C(C)(C)N)C(C)C)C(=O)N[C@@H](CCCCN)C(=O)N[C@@H](CCC(N)=O)C(=O)N[C@@H](CCCCN)C(=O)N[C@@H](CC(C)C)C(=O)N[C@@H](CCCCN)C(=O)O [compound 32, XVLDLFRELLNELLEALKQKLK] (H-[Aib]VLDLFRELLNELLEALKQKLK-OH)	33%	
Ac-PVLDEFREKLNEELEALKQKLK-NH2 [peptide 75, reference compound]		He (%) TFE ([2]; 5 μM peptide, 90% vol TFE, 37° C.): 55%; He (%) free ([2]; free, unbound peptide 5 μM in 5 mM phosphate buffer, pH 7.4, 37° C.): 18%; He (%) SUVs ([2]; peptide-SUV complexes (20:1 EPC:Chol., Ri=30 and Ri=50), 37° C.): 23%; He (%) mics ([2]; peptide-micelle complexes, Ri=100, 37° C.): 28%

Now from value to compound, other results behind:

ACTIVITY (%) LCAT [1]	Compound	also measured
25%	CC(C)C[C@H](NC(=O)[C@H](C)NC(=O)[C@H](CCC(=O)O)NC(=O)[C@H](CC(C)C)NC(=O)C(C)(C)NC(=O)[C@H](CCC(=O)O)NC(=O)[C@H](Cc1c[nH]c2ccccc12)NC(=O)[C@H](CC(C)C)NC(=O)[C@H](CCCCN)NC(=O)[C@H](CCC(=O)O)NC(=O)[C@H](CCCNC(=N)N)NC(=O)[C@H](Cc1ccccc1)NC(=O)[C@H](CCC(=O)O)NC(=O)[C@H](CC(=O)O)NC(=O)[C@H](CC(C)C)NC(=O)[C@@H](NC(=O)[C@@H]1CCCN1)C(C)C)C(=O)N[C@@H](CCCCN)C(=O)N[C@@H](CCC(N)=O)C(=O)N[C@@H](CCCCN)C(=O)N[C@@H](CC(C)C)C(=O)N[C@@H](CCCCN)C(=O)O [compound 43, PVLDEFREKLWEXLEALKQKLK] (H-PVLDEFREKLWE[Aib]LEALKQKLK-OH)	
22%	CC(C)C[C@H](NC(=O)[C@H](C)NC(=O)[C@H](CCC(=O)O)NC(=O)[C@H](CC(C)C)NC(=O)[C@H](CC(C)C)NC(=O)[C@H](CCC(=O)O)NC(=O)[C@H](CC(N)=O)NC(=O)[C@H](CC(C)C)NC(=O)[C@H](CC(C)C)NC(=O)[C@H](CCC(=O)O)NC(=O)[C@H](CCCNC(=N)N)NC(=O)[C@H](Cc1ccccc1)NC(=O)[C@H](CC(C)C)NC(=O)[C@H](CC(=O)O)NC(=O)[C@H](CC(C)C)NC(=O)[C@H](NC(=O)[C@H]1CCCN1)C(C)C)C(=O)N[C@@H](CCCCN)C(=O)N[C@@H](CCC(N)=O)C(=O)N[C@@H](CCCCN)C(=O)N[C@@H](CC(C)C)C(=O)N[C@@H](CCCCN)C(=O)O [compound 48]	
20%	CC(C)C[C@H](NC(=O)[C@H](C)NC(=O)[C@H](CCC(=O)O)NC(=O)[C@H](CC(C)C)NC(=O)C(C)(C)NC(=O)[C@H](CCC(=O)O)NC(=O)[C@H](CC(N)=O)NC(=O)[C@H](CC(C)C)NC(=O)[C@H](CCCCN)NC(=O)[C@H](CCC(=O)O)NC(=O)[C@H](CCCNC(=N)N)NC(=O)[C@H](Cc1ccccc1)NC(=O)[C@H](CCC(=O)O)NC(=O)[C@H](CC(=O)O)NC(=O)[C@H](Cc1c[nH]c2ccccc12)NC(=O)[C@@H](NC(=O)[C@@H]1CCCN1)C(C)C)C(=O)N[C@@H](CCCCN)C(=O)N[C@@H](CCC(N)=O)C(=O)N[C@@H](CCCCN)C(=O)N[C@@H](CC(C)C)C(=O)N[C@@H](CCCCN)C(=O)O [compound 52, PVWDEFREKLNEXLEALKQKLK] (H-PVWDEFREKLNE[Aib]LEALKQKLK-OH)	
